Laboratory results from paper PMC3447753, “Relacin, a Novel Antibacterial Agent Targeting the Stringent Response” (PLoS Pathogens, 2012).

Target: T1, Rel/Spo (D. radiodurans) (Deinococcus radiodurans, UniProt Q9RTC7)
T1 construct: gene DR_1838; full length, His-tagged (anti-His detection), expressed in E. coli BL21 CodonPlus
T1 sequence (Q9RTC7 1-787): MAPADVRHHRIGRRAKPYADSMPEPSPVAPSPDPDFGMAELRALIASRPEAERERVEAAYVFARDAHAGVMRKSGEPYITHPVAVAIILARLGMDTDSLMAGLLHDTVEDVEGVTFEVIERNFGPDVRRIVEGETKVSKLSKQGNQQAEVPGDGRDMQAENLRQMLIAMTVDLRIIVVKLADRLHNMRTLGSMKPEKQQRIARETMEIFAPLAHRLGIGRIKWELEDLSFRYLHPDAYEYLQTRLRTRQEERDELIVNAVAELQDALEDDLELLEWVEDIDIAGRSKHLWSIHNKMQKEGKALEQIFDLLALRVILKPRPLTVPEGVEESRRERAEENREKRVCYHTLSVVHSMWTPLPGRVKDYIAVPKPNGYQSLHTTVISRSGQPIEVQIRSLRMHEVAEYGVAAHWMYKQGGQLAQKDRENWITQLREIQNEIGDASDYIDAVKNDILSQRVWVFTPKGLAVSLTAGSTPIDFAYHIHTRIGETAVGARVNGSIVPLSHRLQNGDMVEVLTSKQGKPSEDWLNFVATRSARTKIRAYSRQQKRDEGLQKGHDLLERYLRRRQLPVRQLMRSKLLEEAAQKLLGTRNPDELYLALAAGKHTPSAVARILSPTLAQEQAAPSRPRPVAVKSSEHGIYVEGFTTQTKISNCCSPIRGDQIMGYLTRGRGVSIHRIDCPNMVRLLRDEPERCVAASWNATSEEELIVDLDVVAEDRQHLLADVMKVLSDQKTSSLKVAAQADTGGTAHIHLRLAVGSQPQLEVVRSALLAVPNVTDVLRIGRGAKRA
Assay: (p)ppGpp synthesis from alpha-32P-GTP, PEI-TLC autoradiography
Type: biochemical
Details: 0.5 mM GTP, 4 mM ATP, 10 mM MgCl2, pH 7.4, isolated ribosomes; inhibitor concentration only in figure

% inhibition at highest Relacin concentration: ~ 80%
Structure (SMILES): CC(C)C(=O)Nc1nc2c(ncn2[C@H]2C[C@H](OC(=O)NCC(=O)NCC(=O)O)[C@@H](COC(=O)NCC(=O)NCC(=O)O)O2)c(=O)[nH]1 [Relacin]
